Measured values as given in patent US4440771A, “2-Acetyl quinoline thiosemicarbazones useful in treatment of gonorrhea, malaria or bacterial infections” (The United States of America as represented by the …, priority 1982, dated 1984).
In brackets after ≈: the same amount, converted by molar mass. Read-outs that look alike come from different tables or passages of the source.

What was measured:
[1] = system: Neisseria meningitidis isolates; test: Minimum inhibitory concentration, macro broth dilution, Neisseria meningitidis isolates (Test 2); assay type: cell-based; details: 24 h
Protocol: Compounds were tested against five isolates of Neisseria meningitidis. […] The test procedure used was the macro broth dilutuon method in duplicate outlined by J. C. Sherris on pages 414-415. The test compounds and controls were prepared as in Test 1. Ampicillin and penicillin standards were initially diluted as described by J. C. Sherris on pages 411-412 followed by dilution with Mueller-Hinton broth.

[2] = system: Staphylococcus aureus isolates; test: Minimum inhibitory concentration, macro broth dilution, Staphylococcus aureus isolates (Test 1); assay type: cell-based; details: for MIC: Staphylococcus aureus, 24 h, read-out: Minimum Inhibitory Concentration
Protocol: Compounds were tested against five isolates of Staphylococcus aureus. The bacteria used were isolated from patients at the Walter Reed Army Medical Center, Washington, D.C. […] Each compound was dissolved in Dimethyl Sulfoxide (DMSO) (12.8 mg/ml) and then diluted with Mueller-Hinton broth to obtain the desired dilutions. Tubes containing the hightest quantities of DMSO with no compound present were run as controls.

[3] = system: Mycobacterium smegmatis strains; test: Minimum inhibitory concentration, Mycobacterium smegmatis strains (Test 4); assay type: cell-based; details: Mycolicibacterium smegmatis
Protocol: Compounds were tested against three strains of Mycobacterium smegmatis. The test procedure used was as mentioned by N. E. Morrison [Int. J. of Leprosy 39:34-43 (1971)]. The strain numbers refer to Mycobacterium smegmatis ATCC 607 (I), a DDS-resistant daughter strain (II), and a Rifampin-resistant daughter strain (III), respectively.

[4] = system: Neisseria gonorrhoeae isolates; test: Minimum inhibitory concentration, agar dilution, Neisseria gonorrhoeae isolates (Test 3); details: 24 h, read-out: Minimum Inhibitory Concentration
Protocol: Compounds were tested against 35 Neisseria gonorrhoeae isolates. The bacteria used were provided by the Department of Bacterial Diseases of the Walter Reed Amry Institute of Research. The test procedure used was the agar dilution method in duplicate as outlined by J. S. Sherris on pages 411-412. GC Medium (Difco) with a 2% defined supplement added as described by D. S. Kellogg et al [J. Bact. […] The compounds were dissolved in DMSO (1.0 mg/ml), diluted with GC broth (GC Medium without agar) to the appropriate concentration, and added to the GC Medium at 55°-56° C. The latter was then poured and allowed to solidify. A penicillin standard was also prepared with initial dilutions as described by J. C. Sherris followed by dilutions with GC broth and addition to the GC Medium at 55°-56° C. The inoculum was 1:200 CG broth dilution of a suspension of colony isolates after the suspension was adjusted visually to the turbidity standard described by J. M. Matsen and A. L. Barr on page 422 in "Manual of Clinical Microbiology," 2nd Ed., E. Lennette, E. H. Spaulding, and J. P. Truant, Ed. […] The plates were inoculated with a replicator and incubated at 37° C. under 5-10% carbon dioxide.

[5] = system: Plasmodium berghei KBG 173; test: In vivo antimalarial activity against Plasmodium berghei in mice (Test 5); parameters: key: C: Mice surviving 60 days are considered cured; active: Activity is defined as a 100% increase in the mean survival time of the treated mice compared to the control group; details: C (n/5) = cured of five
Protocol: Compounds were tested against Plasmodium berghei KBG 173 malaria in mice following the procedure described by T. S. Osdene, P. B. Russell, and L. Rane [J. Med. Chem. 10:431-434 (1967)]. Five mice were tested at each dosage level. Mice surviving 60 days are considered cured. Toxicity is defined as a decrease in the mean survival time of the treated mice as compared to the control group. Activity is defined as a 100% increase in the mean survival time of the treated mice compared to the control group.

[6] = Neisseria meningitidis isolate 7957, read-out: Minimum Inhibitory Concentration
[7] = Neisseria meningitidis isolate 7990, read-out: Minimum Inhibitory Concentration
[8] = Neisseria meningitidis isolate 8005, read-out: Minimum Inhibitory Concentration
[9] = Neisseria meningitidis isolate 8006, read-out: Minimum Inhibitory Concentration
[10] = Neisseria meningitidis isolate 8011, read-out: Minimum Inhibitory Concentration
[11] = Staphylococcus aureus isolate V, 24 hours
[12] = Staphylococcus aureus isolate II, 24 hours
[13] = Staphylococcus aureus isolate III, 24 hours
[14] = Staphylococcus aureus isolate IV, 24 hours
[15] = 24 h, DDS-resistant daughter strain (II)
[16] = 24 h, Rifampin-resistant daughter strain (III)
[17] = ATCC607, 24 h, Mycobacterium smegmatis ATCC 607 (I)
[18] = read-out: Minimum Inhibitory Concentration, Neisseria meningitidis isolate 7957
[19] = read-out: Minimum Inhibitory Concentration, Neisseria meningitidis isolate 7990
[20] = read-out: Minimum Inhibitory Concentration, Neisseria meningitidis isolate 8006
[21] = read-out: Minimum Inhibitory Concentration, Neisseria meningitidis isolate 8011

Compound	MIC [1, 6]	MIC [1, 7]	MIC [1, 8]	MIC [1, 9]	MIC [1, 10]	Minimum Inhibitory Concentration [2, 11]	MIC [2, 12]	MIC [2, 13]	MIC [2, 14]	MIC [3, 15]	MIC [3, 16]	MIC [3, 17]	MIC [4]	further results
CC1(C)S[C@@H]2[C@H](NC(=O)[C@H](N)c3ccccc3)C(=O)N2[C@H]1C(=O)O [Ampicillin, reference compound]	0.008 µg/mL (≈ 0.0229 µM)	0.008 µg/mL (≈ 0.0229 µM)	0.008 µg/mL (≈ 0.0229 µM)	0.016 µg/mL (≈ 0.0458 µM)	0.016 µg/mL (≈ 0.0458 µM)									
CC(=NNC(=S)N1CCCCCC1)c1ccc2ccccc2n1 [Compound 3F, 1-Azacycloheptane-1-thiocarboxylic Acid 2-[1-(2-quinolyl)ethylidene]-hydrazide]	< 0.062 µg/mL	0.125 µg/mL (≈ 0.383 µM)	0.25 µg/mL (≈ 0.766 µM)	0.25 µg/mL (≈ 0.766 µM)	0.25 µg/mL (≈ 0.766 µM)	16 µg/mL	16 µg/mL (≈ 49 µM)	16 µg/mL (≈ 49 µM)	16 µg/mL (≈ 49 µM)	15 µg/mL (≈ 45.9 µM)	10 µg/mL (≈ 30.6 µM)	2.5 µg/mL (≈ 7.66 µM)	0.25 to 0.5 µg/mL (≈ 0.766 to 1.53 µM)	
CC(=NNC(=S)N1CC2CCC(CC2)C1)c1ccc2ccccc2n1 [Compound 3G, 3-Azabicyclo[3.2.2]none-3-thiocarboxylic acid 2-[1-(2-quinolyl)ethylidene]hydrazide]						16 µg/mL				15 µg/mL (≈ 42.6 µM)	10 µg/mL (≈ 28.4 µM)	4 µg/mL (≈ 11.3 µM)	0.5 to 1 µg/mL (≈ 1.42 to 2.84 µM)	Minimum Inhibitory Concentration [2, 12]: 16 µg/mL; Minimum Inhibitory Concentration [2, 13]: 16 µg/mL; Minimum Inhibitory Concentration [2, 14]: 16 µg/mL; MIC [2]: 16 µg/mL (≈ 45.4 µM); MIC [1, 18]: 0.125 µg/mL (≈ 0.355 µM); MIC [1, 19]: 1 µg/mL (≈ 2.84 µM); MIC ([1]; read-out: Minimum Inhibitory Concentration, Neisseria meningitidis isolate 8005): 1 µg/mL (≈ 2.84 µM); MIC [1, 20]: 0.5 µg/mL (≈ 1.42 µM); MIC [1, 21]: 0.5 µg/mL (≈ 1.42 µM); In vivo Antimalarial Activity ([5]; 160 mg/kg): active
CC(=NNC(=S)N1CCN(c2ccccn2)CC1)c1ccc2ccccc2n1 [Compound 3H]	> 1 µg/mL	> 1 µg/mL	> 1 µg/mL	> 1 µg/mL	> 1 µg/mL	16 µg/mL	16 µg/mL (≈ 41 µM)	16 µg/mL (≈ 41 µM)	16 µg/mL (≈ 41 µM)	10 µg/mL (≈ 25.6 µM)	5 µg/mL (≈ 12.8 µM)	2.5 µg/mL (≈ 6.4 µM)	0.125 to 0.5 µg/mL (≈ 0.32 to 1.28 µM)	
CC(=NNC(=S)N1CCCC1)c1ccc2ccccc2n1 [Compound 3I, Pyrrolidine-1-thiocarboxylic acid 2-[1-(2-quinolyl)ethylidene]hydrazide]	0.062 µg/mL (≈ 0.208 µM)	0.125 µg/mL (≈ 0.419 µM)	0.125 µg/mL (≈ 0.419 µM)	0.125 µg/mL (≈ 0.419 µM)	0.125 µg/mL (≈ 0.419 µM)				≤ 0.25 µg/mL	3 µg/mL (≈ 10.1 µM)	1.5 µg/mL (≈ 5.03 µM)	0.6 µg/mL (≈ 2.01 µM)	0.125 to 0.25 µg/mL (≈ 0.419 to 0.838 µM)	MIC ([2]; Staphylococcus aureus isolate I, 24 hours): ≤ 0.25 µg/mL; MIC [2, 11]: ≤ 0.25 µg/mL
CCCNC(=S)NN=C(C)c1ccc2ccccc2n1 [Compound 3J, I-Propylaminothiocarboxylic acid 2-[1-(2-quinolyl)ethylidene]hydrazide]										4 µg/mL (≈ 14 µM)	2 µg/mL (≈ 6.98 µM)	1 µg/mL (≈ 3.49 µM)		
CC(=NNC(=S)N(CC(C)C)CC(C)C)c1ccc2ccccc2n1 [Compound 3K, Diisobutylaminothiocarboxylic acid 2-[1-(2-quinolyl)ethylidene]hydrazide]	0.125 µg/mL (≈ 0.351 µM)	0.5 µg/mL (≈ 1.4 µM)	0.5 µg/mL (≈ 1.4 µM)	1 µg/mL (≈ 2.8 µM)	0.5 µg/mL (≈ 1.4 µM)	16 µg/mL	16 µg/mL (≈ 44.9 µM)	16 µg/mL (≈ 44.9 µM)	16 µg/mL (≈ 44.9 µM)	> 50 µg/mL	> 50 µg/mL	10 µg/mL (≈ 28 µM)	> 1 µg/mL	In vivo Antimalarial Activity ([5]; 320 mg/kg): active; In vivo Antimalarial Activity ([5]; 640 mg/kg): active
Nc1ccc(S(=O)(=O)c2ccc(N)cc2)cc1 [DDS, reference compound]										400 µg/mL (≈ 1610 µM)		2 µg/mL (≈ 8.05 µM)		
CC1(C)S[C@@H]2[C@H](NC(=O)Cc3ccccc3)C(=O)N2[C@H]1C(=O)O [Penicillin, reference compound]													0.062 to 16 µg/mL (≈ 0.185 to 47.8 µM)	MIC [1, 18]: 0.031 µg/mL (≈ 0.0927 µM); MIC [1, 19]: 0.031 µg/mL (≈ 0.0927 µM); MIC [1, 20]: 0.031 µg/mL (≈ 0.0927 µM); MIC [1, 21]: 0.031 µg/mL (≈ 0.0927 µM)
CO[C@H]1/C=C/O[C@@]2(C)Oc3c(C)c(O)c4c(O)c(c(/C=N/N5CCN(C)CC5)c(O)c4c3C2=O)NC(=O)/C(C)=C\C=C\[C@H](C)[C@H](O)[C@@H](C)[C@@H](O)[C@@H](C)[C@H](OC(C)=O)[C@@H]1C [Rifampin, reference compound]											250 µg/mL (≈ 304 µM)	1 µg/mL (≈ 1.22 µM)		
